The test system of test [1] is TIMP-1. The experiment in a line: TIMP-1 secretion by dermal fibroblasts (reverse zymography). The format is cell-based. The source says:
Les effets de ces composés et fractions ont été étudiés sur la sécrétion de TIMP-1 par des fibroblastes dermiques en culture. L'analyse de la quantité de TIMP-1 produite est effectuée par une technique de zymographie inverse (Biotechniques. 2005 Jan;38(1):73-83. Zymographic techniques for the analysis of matrix metalloproteinases and their inhibitors. Snoek-van Beurden PA, Von den Hoff JW). Les résultats présentés sont exprimés en pourcentage par rapport au témoin sans effecteur.

Test [2] has as its target T1, MMP-2 (Homo sapiens, UniProt P08253).
T1 construct: La proMMP-2 recombinante (12,5 ng/mL) est activée par l'APMA 10 mM pendant 16 heures à 4°C
T1 sequence (P08253 110-660): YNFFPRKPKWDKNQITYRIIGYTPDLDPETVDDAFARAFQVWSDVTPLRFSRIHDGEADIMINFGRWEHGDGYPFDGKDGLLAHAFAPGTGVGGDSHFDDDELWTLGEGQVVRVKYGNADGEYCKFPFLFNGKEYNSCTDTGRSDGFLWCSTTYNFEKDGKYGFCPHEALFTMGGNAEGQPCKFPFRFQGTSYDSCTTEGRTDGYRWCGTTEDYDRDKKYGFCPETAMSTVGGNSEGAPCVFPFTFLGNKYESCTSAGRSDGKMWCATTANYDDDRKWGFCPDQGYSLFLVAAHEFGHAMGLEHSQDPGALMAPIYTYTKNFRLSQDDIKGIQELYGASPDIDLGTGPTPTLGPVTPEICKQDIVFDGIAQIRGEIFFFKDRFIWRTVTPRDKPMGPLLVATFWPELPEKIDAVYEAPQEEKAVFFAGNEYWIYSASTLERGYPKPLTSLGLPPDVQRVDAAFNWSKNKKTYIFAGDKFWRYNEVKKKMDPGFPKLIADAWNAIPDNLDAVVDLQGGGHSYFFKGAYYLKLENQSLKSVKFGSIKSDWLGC
In words: MMP-2 activity on fluorescent synthetic substrate. It is filed as biochemical. As to conditions: 25 µg/mL. An excerpt:
L'inhibition de l'activité des gélatinases MMP-2 et MMP-9 par les acides gras insaturés à longue chaîne a pu être montré sur des coupes de peau. Ce phénomène implique à la fois des domaines spécifiques des gélatinases : les "Collagen Binding Domain" (CBD) et la double liaison des acides gras. L'interaction entre les gélatinases, via ces sites particuliers que sont les exosites (CBD), et l'acide gras, via son insaturation, entraîne une perte d'activité des gélatinases in vitro comme in vivo. La présence de double liaisons au niveau des chaînes latérales de ces glycolipides a conduit à cribler l'ensemble des composés de l'invention sur l'activité de la gélatinase-A ou MMP-2, car cette enzyme, bien qu'elle ne soit pas surexprimée au cours des vieillissements par les cellules dermiques, participe à la dégradation du tissu élastique responsable de la formation de rides. […]
La proMMP-2 recombinante (12,5 ng/mL) est activée par l'APMA 10 mM pendant 16 heures à 4°C puis préincubée 10 min en présence des différentes fractions et composés à tester : le substrat synthétique spécifique de la MMP-2 (Référence : M-1895, Bachem) est ensuite ajouté, à la concentration de 2 µM. Le clivage de ce substrat est estimé par mesure de la fluorescence émise après clivage (λexc = 326 nm; λem = 465 nm), à raison d'une lecture toutes les 2 minutes pendant 30 minutes. […]

SMILES strings stand for the structures.

The text below walks through data of patent publication EP1733731A1, “New uses of Glycerol derivatives in particular in cosmetics” (AGRO INDUSTRIE RECHERCHES ET DEVELOPPEMENTS (A.R.D.), priority 2005, dated 2006).

For `CCCCC/C=C\C/C=C\CCCCCCCCOC[C@H](CO[C@@H]1O[C@H](COC(=O)CCCCCCCCCCCCCCC)[C@H](O)[C@H](O)[C@H]1O)OCCCCCCCC/C=C\C/C=C\CCCCC` [ED23-11, 1,2-di-O-linoléyl-3-O-[6'-O-palmitoyl-β-D-galactopyranosyl]-sn-glycérol], the “sécrétion de TIMP-1, pourcentage par rapport au témoin sans effecteur” value worked out at 102% in test [1] (5 ng/mL); 104% in test [1] (25 ng/mL); 98% in test [1] (50 ng/mL); 101% in test [1] (100 ng/mL); 106% in test [1] (200 ng/mL). Also, in test [1] (over the tested concentration range, result in words), the “surexpression du TIMP-1” value is recorded as “pas”. Also, the “MMP-2 (Vi/Vo)” value in test [2] is recorded as > 1.
